Key:
human MSC = assay: CD44 surface expression in MSC exposed to soluble E-selectin; assay type: cell-based; conditions: MSC in vitro
Excerpt: To determine if E-selectin has indispensable effects in bone marrow niche component cells, healthy donor derived-mesenchymal stroma cells (MSC) were exposed to increasing concentrations of E-selectin. […] Abrogation of E-selectin binding by Compound A diminished CD44 expression in vitro.

[1] = test system: patient-derived primary AML xenograft (JAK2 and c-Kit); assay: PDX model (mutations in JAK2 and c-Kit), LSC retention and CyTOF of BM cells; assay type: in vivo, mice
Excerpt: Intra-vital imaging was employed to investigate the effects of Compound B on AML cell motility in the bone marrow of triple reporter mice (Blood: dextran-TRITC; Host T-cells: DsRed; Host myeloid CD11 cells: EYFP) injected with AML cells carrying a turquoise fluorescent protein reporter gene. […] Individual cells were dislodged from the niche and traveled long-distance (FIG. 17C). The combined inhibition of E-selectin and CXCR4 depleted bone marrow vascular niche areas of leukemia cells.
In order to better understand how the augmented AML mobilization improves the efficacy of AML therapy, BM cells from PDX mice treated for 2 weeks with Compound A, Compound B, venetoclax/HMA (Ven/HMA), and their combinations were analyzed by single-cell proteomics (CyTOF). […] However, pharmacological antagonists of E-selectin (Compound A) or E-selectin/CXCR4 (Compound B) protected endothelial cells from Ven/HMA-induced detrimental insults through upregulation of survival signaling cascades, including pAKT, pERK, pMAPK and […] eNOS expression in endothelial cells compared to Ven/HMA treatment alone.

KG1 cells [2] = assay: Global DNA methylation (5-mC) ELISA in KG1 cells; conditions: 100 nM 5-AZA, 96 hours (untreated 0.33%)
Description: Prior to assessing the effect of 5-AZA on specific gene expression, its effect on global DNA methylation was assessed by specifically measuring levels of 5-methylcytosine (5-mC) in a colorimetric ELISA-like reaction. DNA was isolated from cell pellets using a DNA Isolation Kit for Cells and Tissues (Roche Catalog No. 11 814 770 001). DNA was quantified using a DNA Quantification Assay Kit (BioVision Catalog No. K539-200). Global DNA methylation was measured using the MethylFlash™ Global DNA Methylation (5-mC) ELISA Easy Kit (EpiGentek Catalog No. P-1030).
DNA was isolated and purified from cell pellets and evaluated for 5-mC levels.

KG1 cells [3] = assay: Flow cytometry of E-selectin-PE and HECA-452-FITC reactivity with KG1 cells; assay type: cell-based, human; conditions: 100 nM 5-AZA
Description: The increased adhesion of KG1 cells to E-selectin following treatment with 5-AZA was further examined by flow cytometry. Cells were cultured for 96 hours in the presence or absence of 100 nM 5-AZA. The binding of E-selectin-PE (E-selectin-Fc chimera conjugated with R-phycoerythrin) to the cells was determined by flow cytometry. In addition, the reactivity of the cells with HECA-452 monoclonal antibody, which specifically reacts with sialyl Lewis A/X carbohydrate structures and is a surrogate marker of E-selectin ligand, was determined by flow cytometry.
Specifically, KG1 cells were centrifuged at 250×g for 10 minutes, washed with HBSS containing 0.1% bovine serum albumin (HBSS/BSA), and resuspended in HBSS/BSA to approximately 3×10^6 cells per mL. The cells were treated with Fc receptor blocker (Miltenyi Biotech) and 100 μL aliquots (3×10^5 cells) were added to 12×75 mm Falcon polypropylene tubes. Cells were treated with either 5 μL E-selectin-Fc-PE reagent or 20 μL HECA-452-FITC antibody, placed at 4° C. for 45 minutes, washed with 2 mL then again with 1 mL HBSS/BSA. Final cell pellets were resuspended in 500 μl HBSS/BSA and analyzed on an Attune N×T flow cytometer. E-selectin was conjugated with R-phycoerythrin using the PE/R-phycoerythrin conjugation kit—Lightning-Link (Abcam ab102918).

[4] = in combination with Ven/HMA, 2 weeks, CyTOF of BM cells

| SMILES | CD44 expression (human MSC) | levels of E-selectin ligand, mTOR, pFAK, pRb, cMyc [1, 4] | p21 and cleaved caspase3 [1, 4] | protection of endothelial cells from Ven/HMA-induced detrimental insults ([1]; upregulated pAKT, pERK, pMAPK, decreased eNOS vs Ven/HMA alone) | level of 5-mC (KG1 cells [2]) [%] | increase in MFI, HECA-452 (KG1 cells [3]; 96 hours) [%] | increase in median fluorescence intensity, E-selectin-PE (KG1 cells [3]; 96 hours) [%] | increase in the percentage of cells reactive with E-selectin-PE (KG1 cells [3]; 96 hours) [%] | increase in the percentage of cells reactive with HECA-452 (KG1 cells [3]; 96 hours) [%] | percentage of cells reactive with HECA-452 (KG1 cells [3]; 96 hours (untreated 37.8%)) [%] | percentage of cells reactive with E-selectin-PE (KG1 cells [3]; 96 hours (untreated 38.4%)) [%] | MFI, HECA-452 (KG1 cells [3]; 96 hours (untreated 621)) | median fluorescence intensity (MFI), E-selectin-PE (KG1 cells [3]; 96 hours (untreated 940)) |
| --- | --- | --- | --- | --- | --- | --- | --- | --- | --- | --- | --- | --- | --- |
| CCC1CC(C(=O)NCCNC(=O)CCOCCOCCOCCOCCOCCOCCOCCOCCOCCOCCOCCOC)C[C@@H](O[C@@H]2OC(CO)[C@H](O)C(O[C@@H](CC3CCCCC3)C(=O)O)C2NC(C)=O)[C@@H]1OC1O[C@@H](C)[C@H](O)C(O)[C@@H]1O (stereo partly shown) [Compound A] | diminished | diminished | increasing | protected |  |  |  |  |  |  |  |  |  |
| Nc1ncn([C@@H]2O[C@H](CO)[C@@H](O)[C@H]2O)c(=O)n1 [5-azacitidine] |  |  |  |  | 0.12 | 26 | 38 | 38 | 27 | 47.9 | 52.9 | 783 | 1299 |

From patent publication US20240269157A1, “COMPOSITIONS AND METHODS FOR OVERCOMING MICROENVIRONMENT-MEDIATED RESISTANCE VIA E-SELECTIN TARGETING” (GLYCOMIMETICS, INC., priority 2021, published 2024)
